Test systems include IGROV1 ovarian; K-562 leukemia; M14 melanoma; MCF7 breast; NCI-H460 lung; PC-3 prostate; SF-295 CNS; SW-620 colon; U251 CNS; UO-31 renal.
Common to all, as to experiment: NCI tumour cell line growth inhibition, 48 h

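Protocol summary: plate cells (96-well), add compound at 5 concentrations, incubate 48 h, interpolate endpoints linearly. Definition used: TGI = concentration required for complete inhibition of growth.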 Bounds are passed on as bounds.

Turning to `CCCC(=O)OCC1OC(n2cc(F)c(=O)[nH]c2=O)CC1OC(=O)CCC` (stereo not given), the TGI with IGROV1 ovarian, with K-562 leukemia, in the test on M14 melanoma, with MCF7 breast, in the test with NCI-H460 lung and with PC-3 prostate was above 10 µM throughout. The TGI in the test on SF-295 CNS, in the test on SW-620 colon, with U251 CNS and in the test with UO-31 renal was above 10 µM throughout.

In the case of `Cc1cn(S(=O)(=O)c2ccccc2)c2c(OCc3ccccc3)cc([N+](=O)[O-])cc12`, the TGI in the test on IGROV1 ovarian, in the test on K-562 leukemia, in the test on M14 melanoma, in the test with MCF7 breast, in the test with NCI-H460 lung and with PC-3 prostate was above 100 µM throughout. For the same molecule, the TGI in the test on SF-295 CNS, with SW-620 colon, in the test with U251 CNS and in the test on UO-31 renal was above 100 µM throughout.

On to `CC(=O)OCC1OC(n2c(C)c(C)cc(C#N)c2=S)C(OC(C)=O)C(OC(C)=O)C1OC(C)=O` (stereo not given), for which the TGI with IGROV1 ovarian, in the test with K-562 leukemia, with M14 melanoma, in the test on MCF7 breast, in the test on NCI-H460 lung and with PC-3 prostate was above 100 µM throughout. Moreover, the TGI with SF-295 CNS, with SW-620 colon, in the test with U251 CNS and in the test on UO-31 renal was above 100 µM throughout.

`CC(=O)C1=C(C)N(c2ccccc2)C2(O)C3=C(C(=O)c4ccccc4C3=O)C(O)=CC12Cl` (stereo not given): the TGI with IGROV1 ovarian was 8.25 µM; in the test with K-562 leukemia, above 100 µM; with M14 melanoma, above 100 µM; in the test with MCF7 breast it was 39.9 µM; in the test on NCI-H460 lung it was above 100 µM; in the test on PC-3 prostate it was 46.5 µM. Also, the TGI was 40.6 µM with SF-295 CNS, above 100 µM with SW-620 colon, 50.1 µM in the test on U251 CNS and 26.7 µM with UO-31 renal.

In the case of `COc1cc2c(cc1OC)C(CCN)=NCC2`, the TGI in the test with IGROV1 ovarian is 52 µM; in the test on K-562 leukemia, 43.3 µM; in the test on M14 melanoma, 32.8 µM; with MCF7 breast, 40.2 µM; in the test on NCI-H460 lung, above 100 µM; in the test with PC-3 prostate it was 29.6 µM. The TGI was above 100 µM in the test on SF-295 CNS, 17.1 µM with SW-620 colon, 30.8 µM in the test on U251 CNS and 4.2 µM in the test on UO-31 renal.

In the case of `CCN(CC)Cc1cc(N=Nc2c(O)ccc3c(N=Nc4ccc(O)c(CN(CC)CC)c4)c(O)ccc23)ccc1O`, the TGI is 19 µM in the test on IGROV1 ovarian; above 36.3 µM in the test on K-562 leukemia; above 38.5 µM in the test with M14 melanoma; 13 µM with MCF7 breast; 7.54 µM in the test with NCI-H460 lung; above 41.1 µM with PC-3 prostate. The TGI in the test on SF-295 CNS stood at 20 µM; with SW-620 colon it was 15.2 µM; with U251 CNS, 15.5 µM; with UO-31 renal, 6.96 µM.

On to `CCC1(O)C(=O)OCc2c1cc1n(c2=O)Cc2cc3cc4c(cc3nc2-1)OCO4` (stereo not given), for which the TGI in the test on IGROV1 ovarian is 1.54 µM; with K-562 leukemia it was above 100 µM; with M14 melanoma it was 0.0632 µM; in the test on MCF7 breast, above 12.8 µM; with NCI-H460 lung, 0.0156 µM; with PC-3 prostate it was above 100 µM. In addition, the TGI in the test with SF-295 CNS is 0.198 µM; in the test on SW-620 colon, 18.7 µM; with U251 CNS, 0.183 µM; in the test with UO-31 renal it was 0.0512 µM.

Consider `COc1ccc(-c2cc(-c3ccc(C)cc3)n(C3OC(COC(C)=O)C(OC(C)=O)C(OC(C)=O)C3OC(C)=O)c(=S)c2C#N)cc1` (stereo not given), for which the TGI in the test on IGROV1 ovarian, in the test on K-562 leukemia, in the test on M14 melanoma, with MCF7 breast, in the test on NCI-H460 lung and in the test with PC-3 prostate was above 100 µM in each case. In addition, the TGI in the test on SF-295 CNS, in the test with SW-620 colon, in the test on U251 CNS and in the test with UO-31 renal was above 100 µM each time.

For `COc1ccc(N2C(=O)C3ON(Cc4ccc(CC(N)=O)cc4)C(c4c5ccccc5c(C)c5ccccc45)C3C2=O)cc1` (stereo not given), the TGI with IGROV1 ovarian is above 100 µM; in the test on K-562 leukemia it was 38 µM; with M14 melanoma, above 100 µM; in the test with MCF7 breast, 46.6 µM; in the test on NCI-H460 lung, 30.8 µM; in the test with PC-3 prostate, above 100 µM. In addition, the TGI with SF-295 CNS is above 100 µM; in the test on SW-620 colon it was above 100 µM; in the test on U251 CNS it was above 100 µM; with UO-31 renal it was 37.3 µM.

With `COC(=O)[C@@]12CSC[C@]1(C(=O)OC)N[C@@H](c1ccccc1O)C2`, the TGI in the test on IGROV1 ovarian, with K-562 leukemia, in the test on M14 melanoma, with MCF7 breast, in the test with NCI-H460 lung and in the test with PC-3 prostate was above 100 µM throughout. The TGI with SF-295 CNS, with SW-620 colon, in the test on U251 CNS and with UO-31 renal was above 100 µM throughout.

Consider `CC(O)C(CO)NC(=O)C1CSSCC(NC(=O)C(N)Cc2ccccc2)C(=O)NC(Cc2ccccc2)C(=O)NC(Cc2c[nH]c3ccccc23)C(=O)NC(CCCCN)C(=O)NC(C(C)O)C(=O)N1` (stereo not given), for which the TGI in the test on IGROV1 ovarian, in the test on K-562 leukemia, with M14 melanoma, in the test on MCF7 breast, with NCI-H460 lung and with PC-3 prostate was above 100 µM throughout. Further, the TGI in the test on SF-295 CNS, in the test on SW-620 colon, in the test on U251 CNS and in the test on UO-31 renal was above 100 µM each time.

As to `O=C(Nc1ccccc1C(=O)NCc1ccccc1)/C(=C/c1ccccc1O)NC(=O)c1ccccc1`, the TGI in the test on IGROV1 ovarian, with K-562 leukemia, in the test with M14 melanoma, with MCF7 breast, with NCI-H460 lung and with PC-3 prostate was above 100 µM in each case. For the same molecule, the TGI with SF-295 CNS, in the test on SW-620 colon, in the test on U251 CNS and in the test on UO-31 renal was above 100 µM throughout.

On to `CN(C)N1C(=O)C(=O)N(c2cccc3ccccc23)C1=O`, for which the TGI with IGROV1 ovarian, in the test with K-562 leukemia, in the test on M14 melanoma, with MCF7 breast, in the test with NCI-H460 lung and in the test on PC-3 prostate was above 10 µM throughout. For the same molecule, the TGI with SF-295 CNS, with SW-620 colon, with U251 CNS and in the test with UO-31 renal was above 10 µM each time.

For the origin of these results see PubChem BioAssay (NCI).
